Laboratory results taken from ChEMBL document CHEMBL4507284, “Data for DCP probe BI-1230” (2021).

Legend:
[1] = system: Tyrosine-protein kinase ABL1 (Homo sapiens), P00519 [Q252H]; details: Compound concentration 1000.0 nM
[2] = target: Activin receptor type-2B (Homo sapiens) (UniProt Q13705); details: Compound concentration 1000.0 nM
[3] = target: 5'-AMP-activated protein kinase catalytic subunit alpha-1 (Homo sapiens) (UniProt Q13131); details: Compound concentration 1000.0 nM
[4] = target: Mitogen-activated protein kinase kinase kinase 6 (Homo sapiens) (UniProt O95382); details: Compound concentration 1000.0 nM
[5] = target: Cyclin-dependent kinase 19 (Homo sapiens) (UniProt Q9BWU1); details: Compound concentration 1000.0 nM
[6] = target: Serine/threonine-protein kinase Chk2 (Homo sapiens) (UniProt O96017); details: Compound concentration 1000.0 nM
[7] = target: Casein kinase I isoform gamma-1 (Homo sapiens) (UniProt Q9HCP0); details: Compound concentration 1000.0 nM
[8] = target: Discoidin domain-containing receptor 2 (Homo sapiens) (UniProt Q16832); details: Compound concentration 1000.0 nM
[9] = target: Myotonin-protein kinase (Homo sapiens) (UniProt Q09013); details: Compound concentration 1000.0 nM
[10] = target: Dual specificity tyrosine-phosphorylation-regulated kinase 1A (Homo sapiens) (UniProt Q13627); details: Compound concentration 1000.0 nM
[11] = system: Epidermal growth factor receptor (Homo sapiens), P00533 [G719S]; details: Compound concentration 1000.0 nM
[12] = system: Epidermal growth factor receptor (Homo sapiens), P00533 [T790M]; details: Compound concentration 1000.0 nM
[13] = target: Ephrin type-A receptor 2 (Homo sapiens) (UniProt P29317); details: Compound concentration 1000.0 nM
[14] = target: Insulin receptor (Homo sapiens) (UniProt P06213); details: Compound concentration 1000.0 nM
[15] = target: Interleukin-1 receptor-associated kinase 1 (Homo sapiens) (UniProt P51617); details: Compound concentration 1000.0 nM
[16] = target: Tyrosine-protein kinase ITK/TSK (Homo sapiens) (UniProt Q08881); details: Compound concentration 1000.0 nM
[17] = target: Tyrosine-protein kinase JAK3 (Homo sapiens) (UniProt P52333); details: Compound concentration 1000.0 nM
[18] = target: Serine/threonine-protein kinase LATS1 (Homo sapiens) (UniProt O95835); details: Compound concentration 1000.0 nM
[19] = target: Maternal embryonic leucine zipper kinase (Homo sapiens) (UniProt Q14680); details: Compound concentration 1000.0 nM
[20] = target: Mitogen-activated protein kinase kinase kinase 11 (Homo sapiens) (UniProt Q16584); details: Compound concentration 1000.0 nM
[21] = target: Serine/threonine-protein kinase 4 (Homo sapiens) (UniProt Q13043); details: Compound concentration 1000.0 nM
[22] = target: Serine/threonine-protein kinase Nek11 (Homo sapiens) (UniProt Q8NG66); details: Compound concentration 1000.0 nM
[23] = target: Serine/threonine-protein kinase Nek7 (Homo sapiens) (UniProt Q8TDX7); details: Compound concentration 1000.0 nM
[24] = target: Serine/threonine-protein kinase PAK 1 (Homo sapiens) (UniProt Q13153); details: Compound concentration 1000.0 nM
[25] = target: Cyclin-dependent kinase 18 (Homo sapiens) (UniProt Q07002); details: Compound concentration 1000.0 nM
[26] = system: Phosphatidylinositol 4,5-bisphosphate 3-kinase catalytic subunit alpha isoform (Homo sapiens), P42336 [E545K]; details: Compound concentration 1000.0 nM
[27] = system: Phosphatidylinositol 4,5-bisphosphate 3-kinase catalytic subunit alpha isoform (Homo sapiens), P42336 [I800L]; details: Compound concentration 1000.0 nM
[28] = system: Proto-oncogene tyrosine-protein kinase receptor Ret (Homo sapiens), P07949 [V804L]; details: Compound concentration 1000.0 nM
[29] = target: Rho-associated protein kinase 1 (Homo sapiens) (UniProt Q13464); details: Compound concentration 1000.0 nM
[30] = target: Ribosomal protein S6 kinase alpha-4 (Homo sapiens) (UniProt O75676); details: Compound concentration 1000.0 nM
[31] = target: Ribosomal protein S6 kinase alpha-2 (Homo sapiens) (UniProt Q15349); details: Compound concentration 1000.0 nM
[32] = target: Ribosomal protein S6 kinase beta-1 (Homo sapiens) (UniProt P23443); details: Compound concentration 1000.0 nM
[33] = target: Serine/threonine-protein kinase Sgk3 (Homo sapiens) (UniProt Q96BR1); details: Compound concentration 1000.0 nM
[34] = target: Serine/threonine-protein kinase SIK2 (Homo sapiens) (UniProt Q9H0K1); details: Compound concentration 1000.0 nM
[35] = target: Serine/threonine-protein kinase 35 (Homo sapiens) (UniProt Q8TDR2); details: Compound concentration 1000.0 nM
[36] = target: Serine/threonine-protein kinase TAO1 (Homo sapiens) (UniProt Q7L7X3); details: Compound concentration 1000.0 nM
[37] = target: Serine/threonine-protein kinase TBK1 (Homo sapiens) (UniProt Q9UHD2); details: Compound concentration 1000.0 nM
[38] = target: Tyrosine-protein kinase receptor Tie-1 (Homo sapiens) (UniProt P35590); details: Compound concentration 1000.0 nM
[39] = target: BDNF/NT-3 growth factors receptor (Homo sapiens) (UniProt Q16620); details: Compound concentration 1000.0 nM
[40] = target: Transient receptor potential cation channel subfamily M member 6 (Homo sapiens) (UniProt Q9BX84); details: Compound concentration 1000.0 nM
[41] = target: Tyrosine-protein kinase receptor TYRO3 (Homo sapiens) (UniProt Q06418); details: Compound concentration 1000.0 nM
[42] = target: Sodium-dependent noradrenaline transporter (Homo sapiens) (UniProt P23975); details: Compound concentration 10.0 uM
[43] = target: Delta-type opioid receptor (Homo sapiens) (UniProt P41143); details: Compound concentration 10.0 uM
[44] = target: Beta-2 adrenergic receptor (Homo sapiens) (UniProt P07550); details: Compound concentration 10.0 uM
[45] = target: Muscarinic acetylcholine receptor M2 (Homo sapiens) (UniProt P08172); details: Compound concentration 10.0 uM

Maternal embryonic leucine zipper kinase (Homo sapiens), sequence (Q14680 whole entry, looked up): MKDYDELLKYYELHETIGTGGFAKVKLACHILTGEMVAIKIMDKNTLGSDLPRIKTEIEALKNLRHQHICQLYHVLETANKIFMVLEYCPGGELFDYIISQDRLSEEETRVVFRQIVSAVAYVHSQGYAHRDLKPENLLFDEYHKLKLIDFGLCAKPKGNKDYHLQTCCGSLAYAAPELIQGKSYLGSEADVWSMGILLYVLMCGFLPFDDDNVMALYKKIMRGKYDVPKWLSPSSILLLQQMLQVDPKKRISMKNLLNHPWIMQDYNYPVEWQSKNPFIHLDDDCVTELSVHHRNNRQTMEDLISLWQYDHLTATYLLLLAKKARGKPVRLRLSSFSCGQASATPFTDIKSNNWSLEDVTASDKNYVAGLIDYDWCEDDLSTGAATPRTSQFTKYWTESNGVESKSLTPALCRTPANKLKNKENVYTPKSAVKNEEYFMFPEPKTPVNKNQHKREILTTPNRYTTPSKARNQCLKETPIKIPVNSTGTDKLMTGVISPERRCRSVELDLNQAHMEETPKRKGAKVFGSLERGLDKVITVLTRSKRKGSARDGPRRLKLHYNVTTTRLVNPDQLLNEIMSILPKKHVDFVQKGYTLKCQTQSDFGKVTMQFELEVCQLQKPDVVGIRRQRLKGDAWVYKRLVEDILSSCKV
Beta-2 adrenergic receptor (Homo sapiens), sequence (P07550 whole entry, looked up): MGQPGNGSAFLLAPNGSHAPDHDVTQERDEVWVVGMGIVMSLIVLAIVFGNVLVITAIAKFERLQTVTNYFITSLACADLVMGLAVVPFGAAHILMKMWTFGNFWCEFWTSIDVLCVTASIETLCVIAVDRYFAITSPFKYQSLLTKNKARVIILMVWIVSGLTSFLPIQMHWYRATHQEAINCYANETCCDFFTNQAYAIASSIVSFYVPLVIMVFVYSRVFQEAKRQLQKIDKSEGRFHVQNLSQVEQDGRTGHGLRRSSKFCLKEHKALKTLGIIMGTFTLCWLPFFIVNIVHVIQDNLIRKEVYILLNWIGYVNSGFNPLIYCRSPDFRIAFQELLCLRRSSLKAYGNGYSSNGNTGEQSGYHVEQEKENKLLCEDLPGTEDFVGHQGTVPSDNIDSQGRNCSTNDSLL
Casein kinase I isoform gamma-1 (Homo sapiens), sequence (Q9HCP0 whole entry, looked up, the tested form may be a part, canonical isoform): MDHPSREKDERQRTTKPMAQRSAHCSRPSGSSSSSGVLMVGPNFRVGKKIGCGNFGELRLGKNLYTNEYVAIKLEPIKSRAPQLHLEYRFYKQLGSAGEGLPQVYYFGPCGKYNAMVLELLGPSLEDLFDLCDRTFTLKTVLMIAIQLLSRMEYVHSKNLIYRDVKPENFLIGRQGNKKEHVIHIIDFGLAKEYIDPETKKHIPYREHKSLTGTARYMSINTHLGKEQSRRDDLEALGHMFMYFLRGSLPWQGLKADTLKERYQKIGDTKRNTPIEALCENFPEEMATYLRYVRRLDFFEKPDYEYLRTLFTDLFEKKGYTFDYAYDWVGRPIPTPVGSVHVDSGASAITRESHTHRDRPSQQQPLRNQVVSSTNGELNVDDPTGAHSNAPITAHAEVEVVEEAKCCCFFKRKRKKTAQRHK
Serine/threonine-protein kinase Nek11 (Homo sapiens), sequence (Q8NG66 whole entry): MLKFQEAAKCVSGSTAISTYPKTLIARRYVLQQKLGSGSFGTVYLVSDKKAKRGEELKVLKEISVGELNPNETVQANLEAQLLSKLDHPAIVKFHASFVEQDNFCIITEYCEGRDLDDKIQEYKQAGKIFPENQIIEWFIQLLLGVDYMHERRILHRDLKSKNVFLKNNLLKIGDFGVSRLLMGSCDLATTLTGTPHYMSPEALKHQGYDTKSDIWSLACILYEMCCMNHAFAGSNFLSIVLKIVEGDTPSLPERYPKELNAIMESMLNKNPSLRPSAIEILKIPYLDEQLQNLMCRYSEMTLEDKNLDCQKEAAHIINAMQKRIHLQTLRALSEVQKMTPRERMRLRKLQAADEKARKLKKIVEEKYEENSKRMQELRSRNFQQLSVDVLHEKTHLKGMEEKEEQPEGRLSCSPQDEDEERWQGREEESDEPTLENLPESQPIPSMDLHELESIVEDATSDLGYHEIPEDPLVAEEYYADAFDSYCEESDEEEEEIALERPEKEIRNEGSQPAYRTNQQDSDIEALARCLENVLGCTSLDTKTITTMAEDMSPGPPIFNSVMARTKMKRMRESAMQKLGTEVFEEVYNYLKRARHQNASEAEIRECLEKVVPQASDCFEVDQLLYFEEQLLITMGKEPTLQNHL
Serine/threonine-protein kinase Sgk3 (Homo sapiens), sequence (Q96BR1 whole entry): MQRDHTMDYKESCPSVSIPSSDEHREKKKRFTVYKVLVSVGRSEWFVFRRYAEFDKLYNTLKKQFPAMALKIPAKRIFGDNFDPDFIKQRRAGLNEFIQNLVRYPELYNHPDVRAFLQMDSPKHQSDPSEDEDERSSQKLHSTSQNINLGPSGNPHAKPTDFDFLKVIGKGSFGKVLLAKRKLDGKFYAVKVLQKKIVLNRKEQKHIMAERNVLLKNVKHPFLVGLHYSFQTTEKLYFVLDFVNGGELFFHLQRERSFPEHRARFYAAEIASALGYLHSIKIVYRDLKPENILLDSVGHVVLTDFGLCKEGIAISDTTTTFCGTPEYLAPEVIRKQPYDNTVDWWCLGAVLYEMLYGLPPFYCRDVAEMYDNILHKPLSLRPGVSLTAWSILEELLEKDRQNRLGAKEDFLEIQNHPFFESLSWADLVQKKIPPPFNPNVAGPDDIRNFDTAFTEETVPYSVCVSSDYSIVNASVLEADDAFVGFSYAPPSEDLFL
Myotonin-protein kinase (Homo sapiens), sequence (Q09013 whole entry): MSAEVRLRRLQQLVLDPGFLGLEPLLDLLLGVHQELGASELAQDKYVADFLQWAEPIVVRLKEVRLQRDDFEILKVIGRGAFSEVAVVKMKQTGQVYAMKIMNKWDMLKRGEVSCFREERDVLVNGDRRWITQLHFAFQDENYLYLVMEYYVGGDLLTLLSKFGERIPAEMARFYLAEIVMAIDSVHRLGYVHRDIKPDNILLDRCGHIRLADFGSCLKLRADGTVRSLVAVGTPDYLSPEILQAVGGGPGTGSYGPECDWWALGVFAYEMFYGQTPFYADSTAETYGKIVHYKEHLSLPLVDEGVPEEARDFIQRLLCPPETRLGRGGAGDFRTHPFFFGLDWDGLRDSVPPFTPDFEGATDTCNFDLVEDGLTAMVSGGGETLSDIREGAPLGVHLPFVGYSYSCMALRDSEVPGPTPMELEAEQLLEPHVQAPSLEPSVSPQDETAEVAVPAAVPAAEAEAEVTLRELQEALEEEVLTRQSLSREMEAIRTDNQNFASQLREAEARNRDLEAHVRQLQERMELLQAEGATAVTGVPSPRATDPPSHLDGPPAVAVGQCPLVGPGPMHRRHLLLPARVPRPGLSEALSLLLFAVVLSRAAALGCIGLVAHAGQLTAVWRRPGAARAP
Serine/threonine-protein kinase TBK1 (Homo sapiens), sequence (Q9UHD2 whole entry): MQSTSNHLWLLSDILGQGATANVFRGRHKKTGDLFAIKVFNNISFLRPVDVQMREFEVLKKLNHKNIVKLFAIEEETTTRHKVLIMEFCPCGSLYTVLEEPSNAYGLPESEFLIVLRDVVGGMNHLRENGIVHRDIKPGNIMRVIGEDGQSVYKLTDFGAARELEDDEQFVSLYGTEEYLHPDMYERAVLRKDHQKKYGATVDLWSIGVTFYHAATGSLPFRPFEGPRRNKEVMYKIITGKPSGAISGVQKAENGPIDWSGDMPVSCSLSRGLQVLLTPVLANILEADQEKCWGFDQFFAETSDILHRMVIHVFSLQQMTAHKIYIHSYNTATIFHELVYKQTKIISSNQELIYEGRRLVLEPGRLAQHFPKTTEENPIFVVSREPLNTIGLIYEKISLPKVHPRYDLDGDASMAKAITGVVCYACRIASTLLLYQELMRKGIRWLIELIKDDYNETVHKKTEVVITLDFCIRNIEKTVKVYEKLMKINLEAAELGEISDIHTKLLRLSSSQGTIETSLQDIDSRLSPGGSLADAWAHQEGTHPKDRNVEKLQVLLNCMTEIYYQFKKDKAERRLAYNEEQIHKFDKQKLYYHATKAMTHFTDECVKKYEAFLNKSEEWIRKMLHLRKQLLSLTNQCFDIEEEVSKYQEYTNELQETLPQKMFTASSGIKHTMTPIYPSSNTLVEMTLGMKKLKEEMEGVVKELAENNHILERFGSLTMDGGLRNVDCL
Ribosomal protein S6 kinase alpha-4 (Homo sapiens), sequence (O75676 whole entry, looked up): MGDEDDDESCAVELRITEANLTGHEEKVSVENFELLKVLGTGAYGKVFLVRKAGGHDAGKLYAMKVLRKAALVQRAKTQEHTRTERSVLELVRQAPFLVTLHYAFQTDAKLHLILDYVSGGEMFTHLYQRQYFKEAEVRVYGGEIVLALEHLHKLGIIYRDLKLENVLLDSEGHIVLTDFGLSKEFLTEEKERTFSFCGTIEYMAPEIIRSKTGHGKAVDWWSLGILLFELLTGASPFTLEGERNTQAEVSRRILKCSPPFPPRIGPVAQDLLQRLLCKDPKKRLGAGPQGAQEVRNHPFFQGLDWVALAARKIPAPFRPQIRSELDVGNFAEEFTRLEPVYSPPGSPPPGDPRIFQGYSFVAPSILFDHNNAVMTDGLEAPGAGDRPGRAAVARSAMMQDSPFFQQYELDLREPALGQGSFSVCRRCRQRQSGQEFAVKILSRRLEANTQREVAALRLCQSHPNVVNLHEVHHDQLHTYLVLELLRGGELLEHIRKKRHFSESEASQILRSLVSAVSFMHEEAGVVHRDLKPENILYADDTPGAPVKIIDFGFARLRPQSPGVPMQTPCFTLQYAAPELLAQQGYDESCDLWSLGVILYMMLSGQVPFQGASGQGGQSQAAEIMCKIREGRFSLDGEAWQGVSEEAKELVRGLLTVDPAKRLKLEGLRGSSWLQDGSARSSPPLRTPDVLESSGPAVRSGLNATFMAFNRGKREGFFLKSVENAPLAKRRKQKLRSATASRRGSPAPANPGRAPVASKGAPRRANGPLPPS

With `COc1ccc2c(O[C@@H]3C[C@H]4C(=O)N[C@]5(C(=O)O)CC5/C=C\CCCCC[C@H](NC(=O)OC5CCCC5)C(=O)N4C3)cc(-c3csc(NC(=O)C(C)C)n3)nc2c1C` (stereo not given in full) [BI 1230] the residual activity [1] was 70%, the residual activity [2] was 100% and the residual activity [3] was 100%. For the same compound, the residual activity [4] was 98%, the residual activity [5] was 90% and the residual activity [6] was 94%. For the same compound, the residual activity [7] was 94%, the residual activity [8] was 88% and the residual activity [9] was 83%. For the same compound, the residual activity [10] was 79%, the residual activity [11] was 76% and the residual activity [12] was 85%. It also gave a residual activity [13] of 80%, a residual activity [14] of 94% and a residual activity [15] of 69%. It also gave a residual activity [16] of 95%, a residual activity [17] of 88% and a residual activity [18] of 100%. For the same compound, the residual activity [19] was 44%, the residual activity [20] was 100% and the residual activity [21] was 100%. The residual activity [22] was 84%, the residual activity [23] was 100% and the residual activity [24] was 100%. The residual activity [25] was 100%, the residual activity [26] was 68% and the residual activity [27] was 65%. It also gave a residual activity [28] of 95%, a residual activity [29] of 98% and a residual activity [30] of 96%. It also gave a residual activity [31] of 100%, a residual activity [32] of 93% and a residual activity [33] of 75%. The residual activity [34] was 100%, the residual activity [35] was 100% and the residual activity [36] was 96%. It also gave a residual activity [37] of 86%, a residual activity [38] of 100% and a residual activity [39] of 94%. It also gave a residual activity [40] of 100%, a residual activity [41] of 100% and an inhibition [42] of -4.46%. The inhibition [43] was 45.8%, the inhibition [44] was 24.6% and the inhibition [45] was 3.22%.

Compound `O=C(N[C@H]1CCCCC/C=C\C2C[C@@]2(C(=O)O)NC(=O)[C@@H]2C[C@@H](Oc3ccncc3)CN2C1=O)OC1CCCC1` (stereo not given in full) [BI 1675] has a residual activity [1] of 65%, a residual activity [2] of 100% and a residual activity [3] of 100%. For the same compound, the residual activity [4] was 100%, the residual activity [5] was 91% and the residual activity [6] was 100%. For the same compound, the residual activity [7] was 88%, the residual activity [8] was 100% and the residual activity [9] was 89%. For the same compound, the residual activity [10] was 84%, the residual activity [11] was 63% and the residual activity [12] was 91%. It also gave a residual activity [13] of 71%, a residual activity [14] of 100% and a residual activity [15] of 88%. For the same compound, the residual activity [16] was 100%, the residual activity [17] was 100% and the residual activity [18] was 99%. It also gave a residual activity [19] of 84%, a residual activity [20] of 97% and a residual activity [21] of 100%. For the same compound, the residual activity [22] was 100%, the residual activity [23] was 100% and the residual activity [24] was 89%. The residual activity [25] was 92%, the residual activity [26] was 95% and the residual activity [27] was 100%. The residual activity [28] was 86%, the residual activity [29] was 100% and the residual activity [30] was 100%. For the same compound, the residual activity [31] was 75%, the residual activity [32] was 89% and the residual activity [33] was 100%. For the same compound, the residual activity [34] was 100%, the residual activity [35] was 100% and the residual activity [36] was 100%. The residual activity [37] was 100%, the residual activity [38] was 100% and the residual activity [39] was 100%. It also gave a residual activity [40] of 98%, a residual activity [41] of 100% and an inhibition [42] of -6.94%. It also gave an inhibition [43] of -2.02%, an inhibition [44] of 12.8% and an inhibition [45] of -1.71%.
